{"source": "patent US9867799B2", "about": "“Diethyl-[6-(4-hydroxycarbamoyl-phenyl-carbamoyloxy-methyl)-naphthalen-2-yl-methyl]-ammonium chloride for use in the treatment of muscular dystrophy” (ITALFARMACO S.P.A., priority 2012, dated 2018)", "key": {"dogs, rats and monkeys": {"system": "dogs, rats and monkeys", "experiment": "Repeated dose toxicity studies", "format": "in vivo", "details": "oral daily doses up to nine consecutive months", "method": "To date more than 500 patients (including 29 children) have been treated with Givinostat. Repeated dose toxicity studies were carried out in dogs, rats and monkeys. Oral daily doses of the drug were administered up to nine consecutive months. […] The “no adverse effect levels” (NOAEL) ranged from 10 to 25 mg/kg/day depending on the animal species and the duration of treatment."}, "juvenile animals": {"system": "juvenile animals", "experiment": "Juvenile animal toxicity (development and reproductive performance)", "format": "in vivo", "details": "60 mg/kg/day"}, "mouse lymphoma": {"system": "mouse lymphoma", "experiment": "Mouse lymphoma assay in vitro (genotoxicity)", "format": "cell-based"}, "[1]": {"experiment": "Chromosomal aberration assay in vitro (genotoxicity)", "format": "cell-based"}, "[2]": {"experiment": "Micronucleus test in vivo (genotoxicity)"}, "[3]": {"experiment": "UDS test in vivo (genotoxicity)"}, "[4]": {"system": "children with Systemic Onset Juvenile Idiopathic Arthritis", "details": "1.5 mg/kg/day for twelve weeks; cited from earlier work"}}, "data": [{"substance": "diethyl-[6-(4-hydroxycarbamoyl-phenyl-carbamoyloxy-methyl)-naphthalen-2-yl-methyl]-ammonium chloride [Givinostat]", "values": [{"measurement": "tolerability / overt toxicity", "setting": "dogs, rats and monkeys", "value": "well tolerated with no overt toxicity at high doses"}, {"measurement": "behavioural and physical development and reproductive performance of pups", "setting": "juvenile animals", "value": "did not affect the behavioural and physical development and reproductive performance of pups"}, {"measurement": "genotoxic effect", "setting": "mouse lymphoma", "value": "No genotoxic effect"}, {"measurement": "genotoxic effect", "setting": "[1]", "value": "No genotoxic effect"}, {"measurement": "genotoxic effect", "setting": "[2]", "value": "No genotoxic effect"}, {"measurement": "genotoxic effect", "setting": "[3]", "value": "No genotoxic effect"}, {"measurement": "ACR Pedi 30, 50 and 70 improvement", "setting": "[4]", "value": "approximately 70%"}, {"measurement": "adverse effects", "setting": "[4]", "value": "only a limited number of mild or moderate but short lasting, adverse effects"}]}]}
